# Experimental data as given in publication PMC7496434 (Chemmedchem, 2020).
# Columns and labels:
# 1321N1 astrocytoma cells = assay: cells; design: MTT viability assay, absorbance at 570 nm; details: Homo sapiens, 1321-N1, 72 h; read-out: Growth inhibition IC50 ± SEM
# Protocol: MTT assays: The test compounds were investigated at human 1321 N1 astrocytoma cells using the 3‐(4,5‐dimethylthiazol‐2‐yl)‐2,5‐diphenyltetrazolium bromide (MTT) assay in order to assess their cytotoxic effects. Assays were performed as previously described by Baqi et al.30 In brief, cells were detached from the 175 cm^2 culture flasks in which they were grown and subsequently counted using a Neubauer haemocytometer. Then, they were resuspended in the growth medium. An aliquot of the cell suspension (180 μL) was added into each well of a 96‐well plate to obtain 1000 cells per well and incubated for 24 h at 37 °C, 5 % CO2, and 95 % humidity. The outer wells of the 96‐well plate were filled with 200 μL of phosphate‐buffered saline (PBS) to prevent evaporation of the fluid. After 24 h, stock solutions (10 mM) of the test compounds (archazolids) were prepared in DMSO and diluted with cell culture medium to give tenfold of the final concentrations. […] The spectrophotometric absorbance was subsequently measured at 570 nm using a FlexStation (3 multimode plate reader, molecular devices) with a filter of 690 nm. The data were analyzed using Microsoft Excel and GraphPad Prism 5. Results were evaluated by comparing the absorbance of the wells containing compound‐treated cells with the absorbance of wells containing 1 % DMSO without any drug (=100 % viability). […]
# [1] = biological target: T1, human adenosine A3 receptor (A3AR) (Homo sapiens, UniProt P0DMS8); assay: [3H]PSB-11 radioligand competition, CHO membranes; assay type: binding; details: 0.5 nM [3H]PSB-11, 50 mM Tris-HCl pH 7.4, 23 °C, 60 min; read-out: 6
# T1 construct: gene ADORA3; membrane preparations of CHO cells expressing human A3AR
# T1 sequence (P0DMS8 1-318): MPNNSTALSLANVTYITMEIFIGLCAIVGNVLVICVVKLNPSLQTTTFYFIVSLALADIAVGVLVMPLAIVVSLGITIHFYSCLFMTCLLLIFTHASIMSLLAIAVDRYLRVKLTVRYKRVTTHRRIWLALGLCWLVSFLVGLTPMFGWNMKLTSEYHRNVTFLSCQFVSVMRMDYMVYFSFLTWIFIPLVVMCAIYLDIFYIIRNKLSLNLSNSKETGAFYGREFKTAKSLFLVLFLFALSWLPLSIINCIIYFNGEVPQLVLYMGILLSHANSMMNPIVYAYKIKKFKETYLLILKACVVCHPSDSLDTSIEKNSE
# Text: [3H]PSB-11 radioligand competition, CHO membranes on human adenosine A3 receptor (A3AR)
# human P2X3 receptor = biological target: T2, human P2X3 receptor (Homo sapiens, UniProt P56373); assay: inhibition of ATP-induced calcium influx; assay type: cell-based; details: agonist ATP at ~80% of maximal effect; read-out: 6
# T2 construct: gene P2RX3; full-length receptor stably expressed in 1321 N1 astrocytoma cells; homotrimer
# T2 sequence (P56373 1-397): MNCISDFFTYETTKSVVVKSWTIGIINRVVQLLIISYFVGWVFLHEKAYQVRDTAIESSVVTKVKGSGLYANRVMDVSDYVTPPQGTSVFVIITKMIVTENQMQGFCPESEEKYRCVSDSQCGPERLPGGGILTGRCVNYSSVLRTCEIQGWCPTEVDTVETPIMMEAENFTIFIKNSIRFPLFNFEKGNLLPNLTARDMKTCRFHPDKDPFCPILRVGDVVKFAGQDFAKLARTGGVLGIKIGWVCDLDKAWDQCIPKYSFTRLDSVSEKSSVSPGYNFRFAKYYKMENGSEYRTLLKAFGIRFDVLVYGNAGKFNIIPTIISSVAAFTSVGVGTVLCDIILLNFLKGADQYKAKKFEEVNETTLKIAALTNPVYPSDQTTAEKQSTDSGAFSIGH
# Text: inhibition of ATP-induced calcium influx on human P2X3 receptor
# [2] = biological target: T3, human leukocyte elastase (HLE) (Homo sapiens, UniProt P08246); assay: chromogenic assay, […] nm; assay type: biochemical; details: 100 μM MeO-Suc-Ala-Ala-Pro-Val-pNA, sodium phosphate pH 7.8, 500 mM NaCl, 25 °C, 1.5% DMSO; read-out: 6
# T3 construct: gene ELANE; enzyme stock in sodium acetate buffer
# T3 sequence (P08246 30-247): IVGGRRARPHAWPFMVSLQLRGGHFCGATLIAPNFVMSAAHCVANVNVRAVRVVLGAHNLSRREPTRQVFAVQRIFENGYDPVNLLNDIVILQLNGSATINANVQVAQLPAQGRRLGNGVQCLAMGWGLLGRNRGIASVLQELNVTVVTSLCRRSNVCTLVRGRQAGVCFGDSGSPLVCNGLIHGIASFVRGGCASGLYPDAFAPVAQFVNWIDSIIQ
IC50 (1321N1 astrocytoma cells) [µM],Ki [1] [µM],IC50 (human P2X3 receptor) [µM],Ki [2] [µM],SMILES
0.0196 ± 0.004,–,–,–,COC1C(C)=CCCCCOC(=O)CCCC(C)=CC(O)C(C)C=C(C)C=C(C)C=CC(O)C1C (stereo not shown) [compound 6]
–,0.436 ± 0.111,1.19 ± 0.18,13.3 ± 1.5,"COC1C(C)=CCCCCOC(=O)CCCC(C)=CC(O)C(C)C=C(C)C=C(C)C=CC(O)C1C (stereo not shown) [compound 6, Analogue 6]"
